# Test results published in patent US20240316015A1, “COMPOSITION AND METHOD FOR TREATING TUMORS” (NATURAL MEDICINE INSTITUTE OF ZHEJIANG YANGSHENGTANG CO., …, priority 2021, published 2024).
# Legend:
# MC38 = assay: scratch test of MC38; assay type: cell-based; conditions: concentrations such as 5 μM, 10 μM or 20 μM; FIGS. 3-7
# Protocol: Different concentrations of PDE4 inhibitors, such as 5 μM, 10 μM, or 20 μM, were administered to verify the inhibitory effect on metastasis in the scratch test of MC38.
# breast tumor cells 4T1 = assay: mouse model of lung metastasis of breast cancer; assay type: in vivo; conditions: 4T1 lung metastasis model; FIG. 8
# Melanoma cells = assay: subcutaneous tumor model, melanoma cells; assay type: in vivo, C57 mice; conditions: e.g. 4 mg/kg + 2 mg/kg i.p. every 3 days, 6 doses
# Protocol: (§1) (1) Tumorigenesis in mice. 6-8 week-old C57 female mice were selected. Melanoma cells were cultured in vitro to logarithmic phase, collected, and resuspended in a PBS buffer solution. The collected cells were subcutaneously injected into the leg of mice with 5×10^5 cells per mouse to establish a subcutaneous tumor model. (2) After tumorigenesis, the mice were divided into four experimental groups including a blank control, a PDE4 inhibitor group, an immune checkpoint inhibitor group, and a PDE4 inhibitor+immune checkpoint inhibitor group. […] The mice were detected for weight and tumor size and recorded: tumor volume (mm^3)=length (L)×width (W)^2/2, and then subject to Luciferin fluorescence imaging of tumor. […] 10 min after injection, the mice were subject to Luciferin fluorescence imaging using a Small Animal Live Imaging System (model: IVIS Lumina XRMS Series III). […] The mice were detected for weight and tumor size and recorded: tumor volume (mm^3)=length (L)×width (W)^2/2, and then subject to Luciferin fluorescence imaging of tumor. […] 10 min after injection, the mice were subject to Luciferin fluorescence imaging using a Small Animal Live Imaging System (model: IVIS Lumina XRMS Series III).
# Lymphoma cells = assay: subcutaneous tumor model, lymphoma cells; assay type: in vivo, C57 mice; conditions: in combination with anti-PD-L1 antibody; e.g. 4 mg/kg + 2 mg/kg i.p. every 3 days, 6 doses
# Protocol: (§2) (1) Tumorigenesis in mice. 6-8 week-old C57 female mice were selected. Lymphoma cells were cultured in vitro to logarithmic phase, collected, and resuspended in a PBS buffer solution. The collected cells were subcutaneously injected into the leg of mice with 5×10^5 cells per mouse to establish a subcutaneous tumor model. (2) After tumorigenesis, the mice were divided into four experimental groups including a blank control, a PDE4 inhibitor group, an immune checkpoint inhibitor group, and a PDE4 inhibitor+immune checkpoint inhibitor group. The mice in the PDE4 inhibitor+immune checkpoint inhibitor group were sequentially intraperitoneally injected with e.g. 4 mg/kg of PDE4 inhibitor and e.g. 2 mg/kg of immune checkpoint inhibitor (e.g., an PD-L1 antibody) every 3 days, with 6 doses in total, while the PDE4 inhibitor group and the immune checkpoint inhibitor group were separately injected with the same dose of PDE4 inhibitor and immune checkpoint inhibitor in the same manner, and the blank control was injected with the same dose of normal saline. […] The mice were detected for weight and tumor size and recorded: tumor volume (mm^3)=length (L)×width (W)^2/2, and then subject to Luciferin fluorescence imaging of tumor. […] 10 min after injection, the mice were subject to Luciferin fluorescence imaging using a Small Animal Live Imaging System (model: IVIS Lumina XRMS Series III).
# MC38 cells [1] = assay: subcutaneous tumor model, colon cancer cells such as MC38; assay type: in vivo, C57 mice; conditions: e.g. 4 mg/kg + 2 mg/kg i.p. every 3 days, 6 doses
# Protocol: (1) Tumorigenesis in mice. 6-8 week-old C57 female mice were selected. Colon cancer cells, such as MC38 cells, were cultured in vitro to logarithmic phase, collected, and resuspended in a PBS buffer solution. The collected cells were subcutaneously injected into the leg of mice with 5×10^5 cells per mice to establish a subcutaneous tumor model.
# (2) After tumorigenesis, the mice were divided into four experimental groups including a blank control, a PDE4 inhibitor group, an immune checkpoint inhibitor group, and a PDE4 inhibitor+immune checkpoint inhibitor group. The mice in the PDE4 inhibitor+immune checkpoint inhibitor group were sequentially intraperitoneally injected with, e.g., 4 mg/kg of PDE4 inhibitor and, e.g., 2 mg/kg of immune checkpoint inhibitor (e.g., a PD-L1 antibody) every 3 days, with 6 doses in total, while the PDE4 inhibitor group and the immune checkpoint inhibitor group were separately injected with the same dose of PDE4 inhibitor and the immune checkpoint inhibitor in the same manner, and the blank control was injected with the same dose of normal saline. The day of the first injection was taken as day 1. The mice were detected for the weight and tumor size and recorded: the tumor volume (mm^3)=length (L)×width (W)^2/2, and then subject to Luciferin fluorescence imaging of tumor. That is, each mouse was intraperitoneally injected with 100 μL of 1 mg/mL aqueous solution of D-Luciferin potassium as formulated. 10 min after injection, the mice were subject to Luciferin fluorescence imaging using a Small Animal Liver Imaging System (model: IVIS Lumina XRMS Series III).
# (1) Tumorigenesis in mice. 6-8 week-old C57 female mice were selected. […]
# MC38 cells [2] = assay: tumor metastasis model, MC38 cells injected into the spleen of mice; assay type: in vivo, C57 mice; conditions: 4 mg/kg intraperitoneally every 3 days, 6 doses; FIGS. 1A and 1B
# Protocol: In use, DMSO was used as the solvent for Oxaliplatin and Roflumilast. (1) Tumorigenesis in mice. 6-8 week-old C57 female mice were selected. MC38 cells were cultured in vitro to logarithmic phase, collected, and resuspended in a PBS buffer solution. The collected cells were injected into the spleen of mice through surgery with 5×10^5 MC38 cells per mouse to establish a tumor metastasis model. […] The day of the first injection was taken as Day 1. Then, the mice were detected for weight and recorded, and subject to Luciferin fluorescence imaging. That is, each mouse was intraperitoneally injected with 100 μL of 1 mg/mL aqueous solution of potassium D-Luciferin as formulated. 10 min after injection, the mice were subject to Luciferin fluorescence imaging using a Small Animal […] Imaging System (model: IVIS Lumina XRMS Series III).
# Breast cancer cells = assay: subcutaneous tumor model, breast cancer cells; assay type: in vivo, C57 mice; conditions: e.g. 4 mg/kg + 2 mg/kg i.p. every 3 days, 6 doses
# Protocol: as §1, with “Breast cancer” for “Melanoma”
# Hematologic tumor cells = assay: subcutaneous tumor model, hematologic tumor cells; assay type: in vivo, C57 mice; conditions: in combination with anti-PD-L1 antibody; e.g. 4 mg/kg + 2 mg/kg i.p. every 3 days, 6 doses
# Protocol: as §2, with “Hematologic tumor” for “Lymphoma”
# [3] = in combination with anti-PD-1 antibody
# [4] = in combination with anti-PD-L1 antibody
smiles,measurement,setting,value
"COc1ccc(C2CNC(=O)C2)cc1OC1CCCC1 (stereo not shown) [Rolipram, 4-(3-cyclopentyloxy-4-methoxyphenyl)pyrrolidin-2-one]",inhibitory effect on metastasis in the scratch test,MC38,inhibiting metastasis
"O=C(O)Cc1ccc(Cc2cc(-c3cccc(Cl)c3)nc(C(F)(F)F)c2)cc1 [BPN14770, Benzeneacetic acid, 4-[[2-(3-chlorophenyl)-6-(trifluoromethyl)-4-pyridinyl]methyl]-]",inhibitory effect on metastasis in the scratch test,MC38,inhibiting metastasis
O=C(Nc1c(Cl)cncc1Cl)c1ccc(OC(F)F)c(OCC2CC2)c1 [Roflumilast],inhibitory effect on tumor metastasis,breast tumor cells 4T1,significant inhibitory effect on tumor metastasis
same,inhibitory effect on metastasis in the scratch test,MC38,inhibiting metastasis
same,inhibition of tumor growth,Melanoma cells; [3],Synergistically Inhibiting Growth of Melanoma
same,inhibition of tumor growth,Melanoma cells; [4],Synergistically Inhibiting Growth Of Melanoma
same,inhibition of tumor growth,Lymphoma cells,Synergistically Inhibiting Growth of Lymphoma
same,inhibition of tumor growth,MC38 cells [1]; in combination with anti-CTLA-4 antibody,Synergistically Inhibiting Growth of Colon Cancer
same,inhibition of tumor growth,MC38 cells [1]; in combination with anti-LAG-3 antibody,Synergistically Inhibiting Growth of Colon Cancer
same,inhibition of tumor growth,MC38 cells [1]; [3],Synergistically Inhibiting Growth of Colon Cancer
same,inhibition of tumor metastasis (Luciferin fluorescence imaging),MC38 cells [2],Capable of Inhibiting Tumor Metastasis
same,inhibition of tumor growth,Breast cancer cells; [3],Synergistically Inhibiting Growth of Breast Cancer
same,inhibition of tumor growth,Breast cancer cells; [4],Synergistically Inhibiting Growth of Breast Cancer
same,inhibition of tumor growth,Hematologic tumor cells,Synergistically Inhibiting Growth of Hematologic Tumor
OCCN(CCO)c1nc(N2CCCCC2)c2nc(N(CCO)CCO)nc(N3CCCCC3)c2n1 [Dipyridamole],inhibitory effect on metastasis in the scratch test,MC38,inhibiting metastasis
COc1cccc(Nc2c(C(N)=O)cnc3c(C)cc(S(=O)(=O)c4cccc(C(=O)N(C)C)c4)cc23)c1 [GSK256066],inhibitory effect on metastasis in the scratch test,MC38,inhibiting the results of metastasis
